PubChem BioAssay (NCI)
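1) Cells in 96-well plates. 2) Compound, 48 h, 5 concentrations. 3) Linear interpolation between surrounding doses. 4) Unreached endpoint = highest concentration. TGI: total growth inhibition.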

Key:
Assay in all cases: NCI tumour cell line growth inhibition, 48 h
NCI-H460 lung = system: NCI-H460 lung
OVCAR-8 ovarian = system: OVCAR-8 ovarian
HL-60(TB) leukemia = system: HL-60(TB) leukemia
NCI-H226 lung = system: NCI-H226 lung
UACC-62 melanoma = system: UACC-62 melanoma
M14 melanoma = system: M14 melanoma
HT29 colon = system: HT29 colon
ACHN renal = system: ACHN renal
EKVX NSCLC = system: EKVX NSCLC
MALME-3M melanoma = system: MALME-3M melanoma
UO-31 renal = system: UO-31 renal
SK-MEL-2 melanoma = system: SK-MEL-2 melanoma

SMILES | TGI (NCI-H460 lung) | TGI (OVCAR-8 ovarian) | TGI (HL-60(TB) leukemia) | TGI (NCI-H226 lung) | TGI (UACC-62 melanoma) | TGI (M14 melanoma) | TGI (HT29 colon) | TGI (ACHN renal) | TGI (EKVX NSCLC) | TGI (MALME-3M melanoma) | TGI (UO-31 renal) | TGI (SK-MEL-2 melanoma)
CC1(C)CC(C2CC(C)(C)CC(C)(C)[C@H]2O)[C@@H](O)C(C)(C)C1 (some centres undefined) | > 100 µM | > 100 µM | > 100 µM | > 100 µM | > 100 µM | > 100 µM | > 100 µM | > 100 µM | > 100 µM | > 100 µM | > 100 µM | –
O=C1C2=Cc3ccccc3CCN2c2ccc([N+](=O)[O-])cc21 | > 100 µM | > 100 µM | > 100 µM | > 100 µM | > 100 µM | > 100 µM | > 100 µM | > 100 µM | > 100 µM | > 100 µM | 97.7 µM | –
Brc1ccc(C2(N3CCCCC3)CCCCC2)s1 | 84.8 µM | – | 41.8 µM | – | > 100 µM | 71.4 µM | > 100 µM | > 100 µM | > 100 µM | 94 µM | > 100 µM | 37 µM
COc1cccc(/C=N/[N-]C(N)=O)c1[O-].[OH3+].[Zn+2] | > 100 µM | > 100 µM | – | > 100 µM | > 100 µM | > 100 µM | > 100 µM | > 100 µM | > 100 µM | > 100 µM | > 100 µM | > 100 µM
[N-]=[N+]=NC1=C(N=[N+]=[N-])c2cccc3cccc(c23)C1=O | > 100 µM | > 100 µM | – | > 100 µM | > 100 µM | > 100 µM | > 100 µM | > 100 µM | > 100 µM | > 100 µM | > 100 µM | > 100 µM
Cc1ccc2c(c1)C(=O)c1ccc(C)nc1C2=O | – | > 100 µM | > 100 µM | > 100 µM | 48.9 µM | > 100 µM | > 100 µM | > 100 µM | > 100 µM | 52.5 µM | > 100 µM | > 100 µM
CCOC(=O)C(NC(=O)Nc1ccccc1F)(OC)C(F)(F)F (centres undefined) | – | > 100 µM | > 100 µM | – | – | > 100 µM | > 100 µM | > 100 µM | > 100 µM | – | > 100 µM | > 100 µM
O=c1[nH]nc(Cc2ccc(Cl)cc2)n1Nc1ccccc1 | > 100 µM | > 100 µM | – | > 100 µM | > 100 µM | > 100 µM | > 100 µM | > 100 µM | > 100 µM | > 100 µM | > 100 µM | > 100 µM
COC(=O)[C@@H](COC(=O)/C=C/c1ccc(OC(C)=O)c(OC(C)=O)c1)NC(=O)/C=C/c1ccc(OC(C)=O)c(OC(C)=O)c1 | 47 µM | > 100 µM | > 100 µM | > 100 µM | 45.9 µM | 73.8 µM | 88 µM | > 100 µM | 71.5 µM | 29.2 µM | – | 55.4 µM
CC1C2CC(CC2=O)C1(C)C (centres undefined) | > 100 µM | > 100 µM | > 100 µM | > 100 µM | > 100 µM | > 100 µM | > 100 µM | > 100 µM | > 100 µM | > 100 µM | > 100 µM | –
CCOC(=O)CC(=O)Nc1c(C(=O)OCC)sc2nc(SC)nc(Nc3ccc(OC)c(OC)c3)c12 | – | > 100 µM | > 100 µM | > 100 µM | > 100 µM | > 100 µM | > 100 µM | > 100 µM | > 100 µM | > 100 µM | > 100 µM | > 100 µM
CN(N=O)C(N)=NC(=O)c1ccccc1 | 40.6 µM | > 100 µM | – | > 100 µM | > 100 µM | > 100 µM | > 100 µM | > 100 µM | > 100 µM | > 100 µM | > 100 µM | > 100 µM
Cc1oc2nc(N(C)C)n3c(C)nnc3c2c1C | – | > 100 µM | – | > 100 µM | > 100 µM | > 100 µM | > 100 µM | > 100 µM | > 100 µM | – | > 100 µM | –
c1ccc2c(-c3ccnc(-c4c[nH]c5ccccc45)n3)c[nH]c2c1 | > 100 µM | 22.9 µM | 30.8 µM | – | – | – | 7.33 µM | > 100 µM | > 100 µM | – | > 100 µM | > 100 µM
CC(=O)/C(=C\n1c(=S)[nH]c2ccc([N+](=O)[O-])cc21)C(=O)Nc1ccccc1C | > 100 µM | > 100 µM | > 100 µM | > 100 µM | > 100 µM | > 100 µM | > 100 µM | > 100 µM | > 100 µM | > 100 µM | – | > 100 µM
CC(=O)N(CCc1ccccc1)C(C)(C#N)c1ccccc1 (centres undefined) | – | > 100 µM | > 100 µM | > 100 µM | > 100 µM | > 100 µM | > 100 µM | > 100 µM | > 100 µM | > 100 µM | > 100 µM | > 100 µM
NC(=S)NS(=O)(=O)c1ccc(F)cc1 | > 100 µM | > 100 µM | > 100 µM | > 100 µM | > 100 µM | > 100 µM | > 100 µM | > 100 µM | > 100 µM | > 100 µM | – | > 100 µM
C[C@H]1ON2CCC[C@@H]2[C@@H]1C(=O)N1C2CC3CCC2(CS1(=O)=O)C3(C)C (some centres undefined) | > 100 µM | > 100 µM | 26.6 µM | > 100 µM | > 100 µM | > 100 µM | > 100 µM | > 100 µM | > 100 µM | > 100 µM | – | > 100 µM
CSc1nc2ccccc2c(=O)n1-c1cccc(C)c1 | > 100 µM | > 100 µM | 9.77 µM | > 100 µM | > 100 µM | > 100 µM | > 100 µM | > 100 µM | > 100 µM | > 100 µM | – | > 100 µM
